Results reported in ChEMBL document CHEMBL1201862, “PubChem BioAssay data set” (2004).
The source made the active and inactive calls.

Assays:
[1] = biological target: Eukaryotic translation initiation factor 4E (Mus musculus, UniProt P63073); experiment: blockers of eIF4G binding by eIF4E – biochemical, TR-FRET, dose response (AID 855); type: functional;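 also: potency for disrupting eIF4E binding to eIF4GI seen as loss of FRET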
[2] = biological target: Alkaline phosphatase, placental type (Homo sapiens, UniProt P05187); experiment: human placental alkaline phosphatase inhibition – biochemical, luminescence, confirmation (AID 1512); type: functional
[3] = biological target: T1, Alkaline phosphatase, tissue-nonspecific isozyme (Homo sapiens, UniProt P05186); experiment: potency against alkaline phosphatase TNAP – biochemical, luminescent, dose response, SAR follow-up (AID 1056)
T1 sequence (P05186 whole entry): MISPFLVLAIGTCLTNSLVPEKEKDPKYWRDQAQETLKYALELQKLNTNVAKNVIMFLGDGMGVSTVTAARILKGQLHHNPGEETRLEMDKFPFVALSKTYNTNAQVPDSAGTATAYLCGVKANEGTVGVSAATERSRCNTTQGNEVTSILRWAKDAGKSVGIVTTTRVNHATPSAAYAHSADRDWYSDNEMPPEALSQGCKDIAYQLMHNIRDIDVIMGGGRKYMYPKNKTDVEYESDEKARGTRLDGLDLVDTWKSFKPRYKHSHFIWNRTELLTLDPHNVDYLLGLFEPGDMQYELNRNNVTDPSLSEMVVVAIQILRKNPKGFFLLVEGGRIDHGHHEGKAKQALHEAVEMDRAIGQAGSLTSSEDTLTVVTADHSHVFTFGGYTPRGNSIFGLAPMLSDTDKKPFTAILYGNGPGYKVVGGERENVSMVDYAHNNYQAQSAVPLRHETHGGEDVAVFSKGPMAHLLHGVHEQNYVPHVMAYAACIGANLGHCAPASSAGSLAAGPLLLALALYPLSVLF

[4] = biological target: T2, G-protein coupled receptor 35 (Homo sapiens, UniProt Q9HC97); experiment: SAR analysis of Agonists of the GPR35 Receptor using an Image-Based Assay - Set 4. [Related pubchem assays (depositor defined):AID2013, AID2026]; type: functional
Cannabinoid receptor 1 [5] = biological target: T3, Cannabinoid receptor 1 (Homo sapiens, UniProt P21554); experiment: SAR analysis of antagonists of the Cannabinoid Receptor 1 using an Image-Based Assay - Set 4. [Related pubchem assays (depositor defined):AID2013, AID2026]; type: functional
[6] = biological target: G-protein coupled receptor 55 (Homo sapiens, UniProt Q9Y2T6); experiment: SAR Analysis of Selective Antagonists of GPR55 using an Image-Based Assay - Set 4. [Related pubchem assays (depositor defined):AID2013, AID2026]; type: functional;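 also: antagonism of response to 5 µM lysophosphatidylinositol agonist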
[7] = biological target: T2, G-protein coupled receptor 35; experiment: SAR analysis of Antagonists of the GPR35 Receptor using an Image-Based Assay - Set 6. [Related pubchem assays (depositor defined):AID2013, AID2026]; type: functional
Cannabinoid receptor 1 [8] = biological target: T3, Cannabinoid receptor 1; experiment: SAR analysis of agonists of the Cannabinoid Receptor 1 using an Image-Based Assay - Set 4. [Related pubchem assays (depositor defined):AID2013, AID2026]; type: functional
Cannabinoid receptor 2 [9] = biological target: T4, Cannabinoid receptor 2 (Homo sapiens, UniProt P34972); experiment: SAR analysis of antagonists of the Cannabinoid Receptor 2 using an Image-Based Assay - Set 3. [Related pubchem assays (depositor defined):AID2013, AID2026]; type: functional
Cannabinoid receptor 2 [10] = biological target: T4, Cannabinoid receptor 2; experiment: SAR analysis of agonists of the Cannabinoid Receptor 2 using an Image-Based Assay - Set 3. [Related pubchem assays (depositor defined):AID2013, AID2026]; type: functional
[11] = loss of viability in HepG2 cells – cell-based, CellTiter-Glo, cherry-picked, cytotoxicity control for Shn3 inhibitor project, dose response (AID 624134); type: functional
INS1 = experiment: INS-1E survival protection against cytokine death – cell-based, luminescence, retest, dose response (AID 449756); type: functional; conditions: Rattus norvegicus;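 also: cell death triggered by IL-1 beta plus TNF-alpha plus IFN-gamma mixture; protective hits raise ATP signal compared with cytokine alone wells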
[12] = biological target: Neurotensin receptor type 1 (Homo sapiens, UniProt P30989); type: functional;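 also: Image-based confirmatory dose-response assay measuring agonist activity at NTR1; NTR1-expressing U2OS osteosarcoma cells imaged for beta-arrestin GFP spot formation; agonist potency where compounds increase beta-arrestin recruitment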
Streptokinase A = biological target: T5, Streptokinase A (Streptococcus pyogenes serotype M1, UniProt P10520); experiment: viability-normalized secreted streptokinase activity reduction – plasminogen activation absorbance, OD405, dose response (AID 1914); type: functional, Streptococcus pyogenes M1 GAS;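 also: secreted streptokinase activity via plasminogen activation per viability signal from cell pellet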
T5 sequence (P10520 whole entry): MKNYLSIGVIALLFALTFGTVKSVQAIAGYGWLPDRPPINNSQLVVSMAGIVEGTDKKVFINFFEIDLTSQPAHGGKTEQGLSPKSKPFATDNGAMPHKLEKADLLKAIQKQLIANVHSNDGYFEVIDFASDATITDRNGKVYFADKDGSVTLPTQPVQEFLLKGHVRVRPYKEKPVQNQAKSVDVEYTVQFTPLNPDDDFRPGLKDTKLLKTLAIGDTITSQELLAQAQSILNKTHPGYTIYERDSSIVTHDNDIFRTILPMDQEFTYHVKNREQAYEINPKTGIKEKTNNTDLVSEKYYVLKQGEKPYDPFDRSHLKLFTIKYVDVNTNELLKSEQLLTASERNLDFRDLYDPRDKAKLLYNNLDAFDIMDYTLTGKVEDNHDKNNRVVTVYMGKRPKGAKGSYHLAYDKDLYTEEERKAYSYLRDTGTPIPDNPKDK

Streptococcus = experiment: GAS UMAA2166 growth inhibition – luminescence, BacTiterGlo, counter-screen for streptokinase expression inhibitor project, dose response (AID 1915); type: functional, organism-based;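 also: potency for reduction of bacterial viability or growth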
[13] = non-specific 3'UTR reporter inhibition in Clone20-Shn3RL – cell-based, Renilla luciferase, cherry-picked, counter-screen for Shn3 inhibitor project, dose response (AID 624133); type: functional
[14] = viability loss in THP-1 monocytes – THP-1 cells, cytotoxicity control for Vif-APOBEC3G degradation inhibitor project, dose response (AID 1117359); type: functional; conditions: THP-1
[15] = reduction of Shn3 3'UTR-driven luciferase in osteoblasts – cell-based, Clone20 osteoblasts, firefly luciferase, cherry-picked, dose response (AID 624132); type: functional;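 also: firefly luciferase luminescence from reporter carrying the Shn3 3'UTR in osteoblasts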
[16] = microbe, parasite or virus in culture; type: functional; conditions: Mycobacterium tuberculosis
[17] = system: Streptococcus sp. 'group A'; experiment: Streptococcus pyogenes SK(-)GAS viability under kanamycin – luminescence, BacTiterGlo, confirmation, counter-screen for streptokinase expression inhibitor project, dose response (AID 1900); type: functional, organism-based
[18] = decrease of insulin promoter-GFP reporter – imaging, high-content screening, mouse beta cells (AID 1628); type: functional; conditions: MIN6
[19] = MIN6 cell viability loss – mouse insulinoma, cytotoxicity control, dose response (AID 2122); type: functional;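 also: confirmatory high-throughput counterscreen run to flag cytotoxic compounds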
[20] = Trypanosoma cruzi growth suppression in host cells – NIH3T3 host cells, beta-gal luminescence, confirmation (AID 2044); type: functional, cell-based;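 also: intracellular parasites grown in NIH/3T3 mouse fibroblasts as host cells; luminescent beta-galactosidase reporter signal from transgenic T. cruzi replicating inside host cells; inhibitors lower the luminescence signal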
[21] = NIH3T3 cell viability loss – ATP luminescence, mouse fibroblasts, counter-screen, dose response (AID 2010); type: functional, cell-based;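 also: cells exposed to compound for about 90 hours before reading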
Trypsin = Trypsin (Sus scrofa, UniProt P00761); experiment: trypsin protease activity blockade – biochemical, quenched peptide fluorescence, cherry-pick, selectivity assay for Rce1 protease inhibitor project, dose response (AID 488789)
CAAX prenyl protease 2 = CAAX prenyl protease 2 (Saccharomyces cerevisiae S288c, UniProt Q03530); type: biochemical
[22] = toxicity toward cultured mammalian cells – cell-based, plate reader, cherry-pick samples, cytotoxicity control, dose response (AID 504397); type: functional

T2 sequence (Q9HC97 whole entry): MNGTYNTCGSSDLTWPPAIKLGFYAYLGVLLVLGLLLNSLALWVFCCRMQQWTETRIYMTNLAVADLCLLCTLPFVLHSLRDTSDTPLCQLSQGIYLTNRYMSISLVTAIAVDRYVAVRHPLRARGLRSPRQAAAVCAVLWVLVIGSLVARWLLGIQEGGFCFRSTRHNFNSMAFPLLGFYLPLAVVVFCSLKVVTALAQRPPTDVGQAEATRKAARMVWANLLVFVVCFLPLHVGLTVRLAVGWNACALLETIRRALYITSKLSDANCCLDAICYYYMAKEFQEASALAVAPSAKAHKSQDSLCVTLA
T4 sequence (P34972 whole entry): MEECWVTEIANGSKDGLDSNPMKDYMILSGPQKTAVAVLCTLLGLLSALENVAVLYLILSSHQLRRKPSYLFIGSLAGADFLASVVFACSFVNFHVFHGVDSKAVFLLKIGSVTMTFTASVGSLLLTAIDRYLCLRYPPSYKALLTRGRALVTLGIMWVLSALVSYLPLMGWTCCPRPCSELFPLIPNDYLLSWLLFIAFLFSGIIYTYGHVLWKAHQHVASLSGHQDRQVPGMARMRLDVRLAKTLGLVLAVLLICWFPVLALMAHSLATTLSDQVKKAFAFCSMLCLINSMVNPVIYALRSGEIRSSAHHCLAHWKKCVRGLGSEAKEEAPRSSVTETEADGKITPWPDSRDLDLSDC
T3 sequence (P21554 whole entry): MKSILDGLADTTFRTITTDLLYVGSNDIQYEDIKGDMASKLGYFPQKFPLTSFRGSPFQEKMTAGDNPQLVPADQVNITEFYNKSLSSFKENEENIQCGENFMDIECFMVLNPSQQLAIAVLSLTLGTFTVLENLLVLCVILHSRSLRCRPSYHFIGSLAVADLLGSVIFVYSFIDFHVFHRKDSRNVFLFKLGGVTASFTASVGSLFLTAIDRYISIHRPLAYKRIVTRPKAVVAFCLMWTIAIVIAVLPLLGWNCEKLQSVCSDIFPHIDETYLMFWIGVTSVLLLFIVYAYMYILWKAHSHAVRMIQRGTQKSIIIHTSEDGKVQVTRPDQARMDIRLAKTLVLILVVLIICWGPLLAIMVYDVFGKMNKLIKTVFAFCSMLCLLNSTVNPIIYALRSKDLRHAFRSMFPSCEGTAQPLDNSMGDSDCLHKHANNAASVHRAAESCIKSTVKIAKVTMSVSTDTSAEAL
G-protein coupled receptor 55, sequence (Q9Y2T6 whole entry): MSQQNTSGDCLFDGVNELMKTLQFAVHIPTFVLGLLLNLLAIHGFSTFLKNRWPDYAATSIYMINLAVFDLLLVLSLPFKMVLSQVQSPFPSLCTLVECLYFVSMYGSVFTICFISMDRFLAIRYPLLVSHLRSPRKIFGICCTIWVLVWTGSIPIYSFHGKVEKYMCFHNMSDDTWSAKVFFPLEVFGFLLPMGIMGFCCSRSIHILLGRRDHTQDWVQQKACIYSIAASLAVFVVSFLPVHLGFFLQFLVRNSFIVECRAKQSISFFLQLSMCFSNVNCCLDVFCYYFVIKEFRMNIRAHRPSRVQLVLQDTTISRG
Eukaryotic translation initiation factor 4E, sequence (P63073 whole entry): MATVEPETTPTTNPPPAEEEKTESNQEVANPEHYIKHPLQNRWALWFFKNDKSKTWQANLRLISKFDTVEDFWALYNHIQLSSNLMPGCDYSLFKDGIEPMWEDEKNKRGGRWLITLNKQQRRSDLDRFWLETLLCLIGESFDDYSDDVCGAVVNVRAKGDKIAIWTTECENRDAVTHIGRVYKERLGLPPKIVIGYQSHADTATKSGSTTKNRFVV
Alkaline phosphatase, placental type, sequence (P05187 whole entry): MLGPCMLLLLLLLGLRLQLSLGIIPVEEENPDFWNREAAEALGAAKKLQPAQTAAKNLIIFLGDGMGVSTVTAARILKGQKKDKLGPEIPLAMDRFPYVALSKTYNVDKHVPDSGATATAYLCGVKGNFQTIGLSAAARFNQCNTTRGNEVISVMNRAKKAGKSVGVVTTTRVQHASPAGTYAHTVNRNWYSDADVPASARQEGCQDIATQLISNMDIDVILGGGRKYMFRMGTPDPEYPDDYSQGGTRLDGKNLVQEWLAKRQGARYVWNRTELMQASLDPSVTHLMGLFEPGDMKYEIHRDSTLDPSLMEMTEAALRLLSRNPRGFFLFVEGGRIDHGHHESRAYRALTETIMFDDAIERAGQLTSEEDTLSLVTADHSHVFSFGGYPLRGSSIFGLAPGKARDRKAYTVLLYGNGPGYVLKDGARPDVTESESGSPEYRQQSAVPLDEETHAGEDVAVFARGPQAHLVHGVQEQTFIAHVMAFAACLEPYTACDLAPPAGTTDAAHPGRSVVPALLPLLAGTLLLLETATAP
CAAX prenyl protease 2, sequence (Q03530 whole entry): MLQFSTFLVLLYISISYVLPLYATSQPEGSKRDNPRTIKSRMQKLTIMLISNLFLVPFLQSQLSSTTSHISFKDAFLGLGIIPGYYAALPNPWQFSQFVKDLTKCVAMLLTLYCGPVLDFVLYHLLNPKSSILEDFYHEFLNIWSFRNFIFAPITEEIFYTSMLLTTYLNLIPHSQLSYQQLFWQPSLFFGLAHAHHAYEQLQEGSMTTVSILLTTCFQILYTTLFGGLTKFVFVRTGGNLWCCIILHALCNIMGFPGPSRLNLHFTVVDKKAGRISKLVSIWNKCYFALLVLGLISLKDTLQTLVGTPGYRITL
Trypsin, sequence (P00761 whole entry): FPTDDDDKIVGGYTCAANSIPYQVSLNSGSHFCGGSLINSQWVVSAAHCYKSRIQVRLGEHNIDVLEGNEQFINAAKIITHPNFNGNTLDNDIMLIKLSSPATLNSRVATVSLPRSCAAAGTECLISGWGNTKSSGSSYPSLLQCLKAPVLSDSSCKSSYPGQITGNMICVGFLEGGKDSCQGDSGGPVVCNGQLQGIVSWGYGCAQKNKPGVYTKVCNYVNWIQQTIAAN
Neurotensin receptor type 1, sequence (P30989 whole entry): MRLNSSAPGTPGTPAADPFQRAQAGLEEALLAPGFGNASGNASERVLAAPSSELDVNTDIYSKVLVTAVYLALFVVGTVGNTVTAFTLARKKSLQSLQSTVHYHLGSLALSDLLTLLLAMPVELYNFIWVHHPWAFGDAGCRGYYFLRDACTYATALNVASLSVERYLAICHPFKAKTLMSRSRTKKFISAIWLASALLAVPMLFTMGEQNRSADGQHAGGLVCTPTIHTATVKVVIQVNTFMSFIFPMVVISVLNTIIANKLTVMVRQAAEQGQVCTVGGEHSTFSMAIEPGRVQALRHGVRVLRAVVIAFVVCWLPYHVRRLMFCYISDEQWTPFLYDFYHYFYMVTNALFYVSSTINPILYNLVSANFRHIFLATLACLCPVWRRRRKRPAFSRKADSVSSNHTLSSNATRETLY

In the case of `Cc1ccc(NC(=O)CN2C(=O)S/C(=C/c3ccc(-c4cccc(C(=O)O)c4)o3)C2=O)cc1`, the IC50 [1] is reported as 50 µM (inactive).

For `CCN(CC)c1ccc(C(=O)CSc2nc(C)cc(C)n2)cc1`, the IC50 [2] was > 100 µM (inactive) and the IC50 [3] was > 100 µM (inactive).

In the case of `Cc1ccc(-c2nnc(C)c3nn(-c4ccccc4)cc23)cc1`, the EC50 [4] is reported as > 32 µM (inactive), the IC50 (Cannabinoid receptor 1 [5]) is reported as 4.61 µM (active) and the IC50 [6] is reported as > 32 µM (inactive). The IC50 [7] was > 32 µM (inactive), the EC50 (Cannabinoid receptor 1 [8]) was > 32 µM (inactive) and the IC50 (Cannabinoid receptor 2 [9]) was > 32 µM (inactive). For the same compound, the EC50 (Cannabinoid receptor 2 [10]) was > 32 µM (inactive).

With `Cc1cc(C)n(-c2nc(Nc3ccccc3C(F)(F)F)nc(-n3nc(C)cc3C)n2)n1` the AC50 [11] was 58.1 µM (active), the AC50 (INS1) was 4.01 µM (active) and the EC50 [12] was 26 µM (inactive). The EC50 (Streptokinase A) was > 150 µM (not active), the EC50 (Streptococcus) was 8.12 µM (active) and the AC50 [13] was 5.19 µM (active). The CC50 [14] was 3.77 µM (active), the AC50 [15] was 5.49 µM (active) and the CC50 [16] was 12.4 µM (active). The EC50 [17] was 5.15 µM (active).

For `Cc1ccc(-c2cn3c([n+]2-c2ccccc2)CCC3)cc1`, the AC50 (INS1) was 2.5 µM (active), the IC50 [18] was < 0.25 µM (active) and the IC50 [19] was < 0.25 µM (active). The EC50 [20] was 0.94 µM (active) and the EC50 [21] was > 60 µM (not active).

In the case of `N#Cc1c(Cl)nc(Cl)c2c1CCN(Cc1ccccc1)C2`, the AC50 (Trypsin) is reported as 7.02 µM (active) and the AC50 (CAAX prenyl protease 2) is reported as 22.8 µM (active).

For `Cc1ccc(-c2cc(C(F)F)n3ncc(C(=O)NN4CCCCC4)c3n2)cc1`, the IC50 [18] was 2.39 µM (active) and the IC50 [19] was 6.4 µM (active).

For `Cc1cc(C)cc(Nc2nc(-c3ccc(S(=O)(=O)N4CCCC4)cc3)cs2)c1`, the AC50 [22] was > 350 µM (inactive).
